Consider four compounds from patent publication US10350271B2, “Lipidated peptides for lowering blood glucose” (USTAV ORGANICKE CHEMIE A BIOCHEMIE AKADEMIE VED CR, V.V.I., priority 2014, dated 2019).

The target in one experiment is T1, rat PrRP receptor (Rattus norvegicus, UniProt Q64121).
T1 construct: host or cells: RC-4B/C rat pituitary cell line
T1 sequence (Q64121 1-370): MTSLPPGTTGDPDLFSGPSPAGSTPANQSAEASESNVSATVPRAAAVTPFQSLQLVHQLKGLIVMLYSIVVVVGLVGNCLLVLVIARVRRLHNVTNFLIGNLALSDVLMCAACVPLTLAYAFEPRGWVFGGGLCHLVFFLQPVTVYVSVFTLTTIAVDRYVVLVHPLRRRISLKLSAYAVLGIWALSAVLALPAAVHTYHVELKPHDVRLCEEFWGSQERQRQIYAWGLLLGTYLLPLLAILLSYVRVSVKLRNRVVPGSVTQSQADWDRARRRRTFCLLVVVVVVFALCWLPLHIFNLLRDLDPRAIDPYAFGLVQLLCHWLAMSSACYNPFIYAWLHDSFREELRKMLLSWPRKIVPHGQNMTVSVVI
Nature of the experiment: Competitive binding in RC-4B/C rat pituitary cells (125I-rat PrRP31). The following applies: for Ki: RC-4B/C cells, displacement of 125I-rat PrRP31, read-out: Ki, RC-4B/C rat pituitary cells ^25I-rat PrRP31; for % of PrRP31, RC-4B/C rat pituitary cells: affinity relative to PrRP31. The gist of the method: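 Intact rat pituitary RC-4B/C cells incubated 60 min at room temperature with […] rat 125I-PrRP31 and unlabeled analog (10^−11 to 10^−4 mol·l^−1) in HEPES pH 7.4 buffer. Cell-bound radioactivity γ-counted after NaOH lysis; one-site competition fit.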
A general note: Displacement assays read how much labelled ligand stays bound in the presence of the test substance.

Experiment [1] has as its target T2, human PrRP receptor GPR10 (Homo sapiens, UniProt P49683).
T2 construct: host or cells: CHO cells
T2 sequence (P49683 1-370): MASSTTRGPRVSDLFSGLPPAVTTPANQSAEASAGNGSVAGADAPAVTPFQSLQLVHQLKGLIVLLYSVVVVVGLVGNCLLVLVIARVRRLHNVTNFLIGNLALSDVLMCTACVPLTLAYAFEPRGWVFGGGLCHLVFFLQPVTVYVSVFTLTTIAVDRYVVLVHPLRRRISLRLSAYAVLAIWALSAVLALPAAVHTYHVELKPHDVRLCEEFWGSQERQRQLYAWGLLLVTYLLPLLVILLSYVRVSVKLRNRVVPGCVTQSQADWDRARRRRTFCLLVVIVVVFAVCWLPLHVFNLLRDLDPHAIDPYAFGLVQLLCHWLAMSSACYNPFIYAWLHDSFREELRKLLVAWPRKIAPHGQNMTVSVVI
Nature of the experiment: Competitive binding in CHO cells transfected with human GPR10 (human 125I-PrRP31). Particulars: for Ki: CHO cells, human 125I-PrRP31, read-out: Ki, GPR10 human receptor transfected in CHO cells; for % of PrRP31, GPR10 human receptor transfected in CHO cells: affinity relative to PrRP31. The gist of the method:
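GPR10-transfected CHO cells (40-80 thousand/well) incubated 60 min at room temperature with 5×10^-11 mol·l^-1 human 125I-PrRP31 and unlabeled analog at 10^-11 to 10^-4 mol·l^-1 in Tris binding buffer pH 7.4. Cells solubilized in 0.1 mol/l NaOH, γ-counted; one-site nonlinear regression fit.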

A further experiment relates to C57BL/6 mice. Nature of the experiment: Food intake in fasted mice after SC injection. In kind it is in vivo. The following applies: 5 mg/kg SC, 45 min after injection. In a few lines:
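Overnight-fasted animals (food removed 17 h before dosing, water available) in individual cages got saline, PrRP or lipidated PrRP analogs SC at 1-10 mg/kg.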

A further experiment has as its system Wistar rats. Nature of the experiment: Food intake in fasted rats after SC injection. The class given is in vivo. The following applies: overnight fasted rats, compared to controls given vehicle. On the procedure: NMRI mice, C57BL/6 mice, and Wistar rats (AnLab, Prague, Czech Republic) were housed in a temperature of 23° C. and a daily cycle of 12 h light and dark (light from 6:00). They were given ad libitum water and a standard chow diet that contained 25, 9 and 66% of calories of protein, fat and carbohydrate respectively. Energy content of the feed was 3.4 kcal/g (St-1, Mlýn Kocanda, Czech Republic). Db/db mice and their controls (C57BL/6 background) were obtained from Taconic (Denmark), housed under the same conditions as described above, and fed by Altromin (Taconic, Denmark). ZDF-Lepr^fa/Crl, diabetic fa/fa male rats were obtained from Charles River (France), housed under same conditions as described above, and fed with a Purina 5008 diet (IPS Product Supplies Limited, UK). All experiments followed the ethical guidelines for animal experiments and the law of the Czech Republic Nr. 246/1992.
In experiments with C57BL/6 mice or Wistar rats, food intake was measured with overnight fasted animals in individual cages. Food was withdrawn 17 hours prior to injection of lipidated analog of prolactin releasing peptide (PrRP); free access to water was maintained. The administration of either saline, PrRP, or lipidated analogs was performed by SC injection at doses of 1-10 mg/kg (which corresponded to a volume of 0.2 ml/mouse and 0.1 ml/100 g weight of rat). Fifteen minutes after the lipidated analog of prolactin releasing peptide (PrRP) administration, the mice were given pre-weighed food. The food was then weighed every 30 minutes for 5-10 hours. The administration of each dose was performed at least twice, and each group of mice consisted of at least 6 mice.

Numbered stars: 1 amine (or outer) side, 2 acyl side, 3 side chain; on linkers, the order of the positions; unused ones are H or OH. Side chains are listed from the residue outwards. Peptide text beside a SMILES is read from it. * marks the point of attachment. TTDA(Palmitoyl) = CCCCCCCCCCCCCCCC(=O)NCCCOCCOCCOCCCN*; γGlu = O=C(O)[C@H](CCC(=O)[*:2])N[*:1]; Palmitoyl = CCCCCCCCCCCCCCCC(=O)*; Suc = O=C(CCC(=O)[*:2])[*:1]; GABA = NCCCC(=O)O

Consider `CCCCCCCCCCCCCCCC(=O)NCCCC(=O)NCCCC[C@H](NC(=O)[C@@H](NC(=O)[C@H](CCC(=O)O)NC(=O)[C@H](CCSC)NC(=O)[C@H](CO)NC(=O)[C@H](Cc1c[nH]cn1)NC(=O)[C@H](CCCNC(=N)N)NC(=O)[C@H](Cc1c[nH]cn1)NC(=O)[C@@H](NC(=O)[C@H](CCCNC(=N)N)NC(=O)[C@@H](N)CO)[C@@H](C)O)[C@@H](C)CC)C(=O)N[C@H](C(=O)N1CCC[C@H]1C(=O)N[C@@H](CC(=O)O)C(=O)N[C@H](C(=O)N[C@@H](CC(N)=O)C(=O)N1CCC[C@H]1C(=O)N[C@@H](C)C(=O)N[C@@H](Cc1c[nH]c2ccccc12)C(=O)N[C@@H](Cc1ccc(O)cc1)C(=O)N[C@@H](C)C(=O)N[C@@H](CO)C(=O)N[C@@H](CCCNC(=N)N)C(=O)NCC(=O)N[C@H](C(=O)N[C@@H](CCCNC(=N)N)C(=O)N1CCC[C@H]1C(=O)N[C@H](C(=O)NCC(=O)N[C@@H](CCCNC(=N)N)C(=O)N[C@@H](Cc1ccccc1)C(N)=O)C(C)C)[C@@H](C)CC)[C@@H](C)CC)[C@@H](C)O` [Analog 53] (H-SRTHRHSMEIK([GABA-Palmitoyl])TPDINPAWYASRGIRPVGRF-NH2), for which, at rat PrRP receptor, the Ki turned out to be 1.26 ± 0.57 nM and the “% of PrRP31, RC-4B/C rat pituitary cells” value is recorded as 190%. Moreover, in experiment [1], the Ki stood at 9.19 ± 0.96 nM and the “% of PrRP31, GPR10 human receptor transfected in CHO cells” value (shortened to “% of PrRP31 … in CHO cells”) is on record as 42.5%. In the experiment with C57BL/6 mice, the “Food intake in mice % of saline-treated group” value (shortened to “Food intake in mice %”) came out at 25%. Moreover, in the experiment on Wistar rats, the “Food intake in rats” value is reported as “significantly reduced”.
In the case of `CCCCCCCCCCCCCCCC(=O)N[C@@H](CCC(=O)N[C@@H](CO)C(=O)N[C@@H](CCCNC(=N)N)C(=O)N[C@H](C(=O)N[C@@H](Cc1c[nH]cn1)C(=O)N[C@@H](CCCNC(=N)N)C(=O)N[C@@H](Cc1c[nH]cn1)C(=O)N[C@@H](CO)C(=O)N[C@@H](CCSC)C(=O)N[C@@H](CCC(=O)O)C(=O)N[C@H](C(=O)N[C@@H](CCCNC(=N)N)C(=O)N[C@H](C(=O)N1CCC[C@H]1C(=O)N[C@@H](CC(=O)O)C(=O)N[C@H](C(=O)N[C@@H](CC(N)=O)C(=O)N1CCC[C@H]1C(=O)N[C@@H](C)C(=O)N[C@@H](Cc1c[nH]c2ccccc12)C(=O)N[C@@H](Cc1ccc(O)cc1)C(=O)N[C@@H](C)C(=O)N[C@@H](CO)C(=O)N[C@@H](CCCNC(=N)N)C(=O)NCC(=O)N[C@H](C(=O)N[C@@H](CCCNC(=N)N)C(=O)N1CCC[C@H]1C(=O)N[C@H](C(=O)NCC(=O)N[C@@H](CCCNC(=N)N)C(=O)N[C@@H](Cc1ccccc1)C(N)=O)C(C)C)[C@@H](C)CC)[C@@H](C)CC)[C@@H](C)O)[C@@H](C)CC)[C@@H](C)O)C(=O)O` [Analog 54], at rat PrRP receptor, the Ki was found to be 0.5 ± 0.13 nM and the “% of PrRP31, RC-4B/C rat pituitary cells” value came out at 119%. The “% of PrRP31 … in CHO cells” value in experiment [1] is recorded as 57%. Further, the “Food intake in mice %” value with C57BL/6 mice is listed as 14%. In the experiment on Wistar rats, the “Food intake in rats” value is “significantly reduced”.
As to `CCCCCCCCCCCCCCCC(=O)N[C@@H](CCC(=O)NCCCC[C@H](NC(=O)[C@@H](NC(=O)[C@H](CCC(=O)O)NC(=O)[C@H](CCSC)NC(=O)[C@H](CO)NC(=O)[C@H](Cc1c[nH]cn1)NC(=O)[C@H](CCCNC(=N)N)NC(=O)[C@H](Cc1c[nH]cn1)NC(=O)[C@@H](NC(=O)[C@H](CCC(=O)O)NC(=O)[C@@H](N)CO)[C@@H](C)O)[C@@H](C)CC)C(=O)N[C@H](C(=O)N1CCC[C@H]1C(=O)N[C@@H](CC(=O)O)C(=O)N[C@H](C(=O)N[C@@H](CC(N)=O)C(=O)N1CCC[C@H]1C(=O)N[C@@H](C)C(=O)N[C@@H](Cc1c[nH]c2ccccc12)C(=O)N[C@@H](Cc1ccc(O)cc1)C(=O)N[C@@H](C)C(=O)N[C@@H](CO)C(=O)N[C@@H](CCCNC(=N)N)C(=O)NCC(=O)N[C@H](C(=O)N[C@@H](CCCNC(=N)N)C(=O)N1CCC[C@H]1C(=O)N[C@H](C(=O)NCC(=O)N[C@@H](CCCNC(=N)N)C(=O)N[C@@H](Cc1ccccc1)C(N)=O)C(C)C)[C@@H](C)CC)[C@@H](C)CC)[C@@H](C)O)C(=O)O` [Analog 55] (H-SETHRHSMEIK([γGlu-Palmitoyl])TPDINPAWYASRGIRPVGRF-NH2), the “% of PrRP31, RC-4B/C rat pituitary cells” value on rat PrRP receptor was found to be 236%. Besides, in experiment [1], the Ki turned out to be 4.72 ± 0.35 nM and the “% of PrRP31 … in CHO cells” value came to 83%. Moreover, the “Food intake in mice %” value with C57BL/6 mice came out at 12%. For the same compound, the “Food intake in rats” value in the experiment with Wistar rats was “significantly reduced”.
Consider `CCCCCCCCCCCCCCCC(=O)NCCCOCCOCCOCCCNC(=O)CCC(=O)NCCCC[C@H](NC(=O)[C@@H](NC(=O)[C@H](CCC(=O)O)NC(=O)[C@H](CCSC)NC(=O)[C@H](CO)NC(=O)[C@H](Cc1c[nH]cn1)NC(=O)[C@H](CCCNC(=N)N)NC(=O)[C@H](Cc1c[nH]cn1)NC(=O)[C@@H](NC(=O)[C@H](CCCNC(=N)N)NC(=O)[C@@H](N)CO)[C@@H](C)O)[C@@H](C)CC)C(=O)N[C@H](C(=O)N1CCC[C@H]1C(=O)N[C@@H](CC(=O)O)C(=O)N[C@H](C(=O)N[C@@H](CC(N)=O)C(=O)N1CCC[C@H]1C(=O)N[C@@H](C)C(=O)N[C@@H](Cc1c[nH]c2ccccc12)C(=O)N[C@@H](Cc1ccc(O)cc1)C(=O)N[C@@H](C)C(=O)N[C@@H](CO)C(=O)N[C@@H](CCCNC(=N)N)C(=O)NCC(=O)N[C@H](C(=O)N[C@@H](CCCNC(=N)N)C(=O)N1CCC[C@H]1C(=O)N[C@H](C(=O)NCC(=O)N[C@@H](CCCNC(=N)N)C(=O)N[C@@H](Cc1ccccc1)C(N)=O)C(C)C)[C@@H](C)CC)[C@@H](C)CC)[C@@H](C)O` [Analog 57] (H-SRTHRHSMEIK([Suc-TTDA(Palmitoyl)])TPDINPAWYASRGIRPVGRF-NH2; N-terminus assumed), for which, on rat PrRP receptor, the “% of PrRP31, RC-4B/C rat pituitary cells” value was found to be 663%. In experiment [1], the Ki was 3.79 ± 0.46 nM and the “% of PrRP31 … in CHO cells” value is listed as 103%. Further, the “Food intake in mice %” value in the experiment with C57BL/6 mice is reported as 10%. Further, the “Food intake in rats” value in the experiment with Wistar rats was “significantly reduced”.
